# Entries after “also recorded” stand apart in the source; their conditions may differ.
# Legend:
# CD3 expression = experiment: FACS of CD3 expression on OVA-activated OT-1 T-cells; assay type: cell-based, mouse
# From the text: (§1) The presence of cells was confirmed by using forward scatter height or side scatter height n the form of a dot and contor plots. […] Non-stained cells were used a control.
# [1] = system: PD-1 expression on OT-1 T-cells; experiment: FACS of PD-1 surface expression on OT-1 T-cells stimulated in vitro by OVA peptide presented by EL-4 cells; assay type: cell-based, mouse; conditions: OT-1 T-cells stimulated in vitro by OVA peptide presented by EL-4 cells (FIG. 1, 2, 3, 11)
# Method: (§2) Non-stained cells were used a control.
# (§3) Cells were then stained for FACs with APC conjugated anti-PD-1 (CD279) (a, b) or subjected to qPCR (c, d) as described in the Materials and Methods. Reverse transcription was performed using the RNA polymerase chain reaction (PCR). PCRs were amplified for 40 cycles in a sequence detection system. mRNA expression was normalized against GAPDH (Glyceraldehyde 3-phosphate dehydrogenase) expression using the standard curve method.
# T-cells were incubated in the presence or absence of anti-PD-1 and then subjected to FACs or qPCR as described in the Materials and Methods.
# FasL expression [2] = experiment: FACS of FasL expression on T-cells from EL4-OVA tumor-bearing mice treated in vivo; design: species or system mouse; conditions: negative control (FIG. 9d)
# From the text: Tumors were visible after 1 wk and grew progressively in an encapsulated fashion. Mice were young at 4-6 weeks.
# Tbet transcription = experiment: qPCR of Tbet transcription in cells from EL4-OVA tumor-bearing OT-1 Tg mice; assay type: in vivo, mouse; conditions: cells at day 12, mice 4-6 weeks (FIG. 9c)
# Method: (§4) Single-strand cDNA was synthesized with an RT-PCR kit (Qiagen, Hilden, Germany) according to the manufacturer's instructions. Reverse transcription was performed using the RNA polymerase chain reaction (PCR) core kit (Applied Biosystems). Relative quantitative real-time PCR used SYBR green technology (Roche) on cDNA generated from the reverse transcription of purified RNA. After preamplification (95° C. for 2 min), the PCRs were amplified for 40 cycles (95° C. for 15 s and 60° C. for 60 s) in a sequence detection system (PE Prism 7000; Perkin-Elmer Applied Biosystems, USA). mRNA expression was normalized against GAPDH expression using the standard curve method. […]
# CD69 expression = experiment: FACS of CD69 expression on T-cells from EL4-OVA tumor-bearing mice treated in vivo; design: species or system mouse; conditions: EL4-OVA model (FIG. 12d)
# [3] = system: PD-1 expression on T-cells; experiment: FACS of PD-1 expression on T-cells from EL4-OVA tumor-bearing mice treated in vivo; design: species or system mouse; conditions: EL4-OVA model
# [4] = system: Tbet (Tbx21) transcription; experiment: qPCR of Tbet transcription in OT-1 T-cells stimulated in vitro by OVA peptide/EL4; assay type: cell-based, mouse; conditions: OT-1 T-cells stimulated by OVA peptide in vitro (FIG. 1d)
# Method: Single-strand cDNA was synthesized with an RT-PCR kit (Qiagen, Hilden, Germany) according to the manufacturer's instructions. Reverse transcription was performed using the RNA polymerase chain reaction (PCR) core kit (Applied Biosystems). Relative quantitative real-time PCR used SYBR green technology (Roche) on cDNA generated from the reverse transcription of purified RNA. After preamplification (95° C. for 2 min), the PCRs were amplified for 40 cycles (95° C. for 15 s and 60° C. for 60 s) in a sequence detection system (PE Prism 7000; Perkin-Elmer Applied Biosystems, USA). mRNA expression was normalized against GAPDH expression using the standard curve method.
# as §3
# FasL expression [5] = experiment: FACS of FasL expression on OVA-activated OT-1 T-cells; assay type: cell-based, mouse
# From the text: as §2
# [6] = system: panel of 24 other protein kinases; conditions: selectivity; cited from earlier work
# PD-1 transcription = experiment: qPCR of PD-1 transcription in cells from EL4-OVA tumor-bearing OT-1 Tg mice; assay type: in vivo, mouse; conditions: cells at day 12, mice 4-6 weeks (FIG. 9b)
# Method: as §4
# EL4-OVA target cells = experiment: Cytotoxicity assay: OT-1 CD8+ CTL killing of EL4-OVA target cells; conditions: over a range of target:effector ratios (FIG. 1e,f)
# Method: Cytotoxicity was assayed using a Cytotox 96 nonradioactive kit (Promega) following the instructions provided and using established methods. In brief, purified T cells were plated in 96-well plates at the effector/target ratios shown using 10^4 EL4 (ova peptide-pulsed) target cells per well in a final volume of 200 μl per well using RPMI lacking phenol red. Target cells per well were in a final volume of 200 μl per well using RPMI lacking phenol red. Lactate dehydrogenase release was assayed after 4 h incubation at 37° C. by removal of 50 μl supernatant from each well and incubation with substrate provided for 30 min and the absorbance read at 490 nm using the Thermomax plate reader (Molecular Devices). Percentage cytotoxicity=((experimental effectorspontaneous−target spontaneous)/(targetmaximum−target spontaneous))×100.
# [7] = system: CTLA-4 (CD152) expression; experiment: FACS of CTLA-4 (CD152) expression on T-cells from EL4-OVA tumor-bearing mice treated in vivo; design: species or system mouse; conditions: EL4-OVA model (FIG. 12e)
# EL4 tumor cells = experiment: Intradermal EL4 / EL4-OVA tumor model in OT-1 Tg mice, tumor growth; assay type: in vivo, mouse; conditions: OVA peptide 2, 5 and 10 ug, 10 days, young mice 4-6 weeks (FIG. 9a)
# [8] = system: Interferon-γ1 (IFN-γ1) expression; experiment: FACS of IFN-γ1 expression on T-cells from EL4-OVA tumor-bearing mice treated in vivo; design: species or system mouse; conditions: EL4-OVA model (FIG. 12b,c)
# [9] = system: PD-1 expression on T-cells; experiment: FACS of PD-1 expression induced by mixed lymphocyte reaction (C57Bl/6 + ICR/CD1 spleen T-cells, 60 hours); assay type: cell-based, mouse; conditions: C57Bl/6 + ICR/CD1 co-culture, 60 hours (FIG. 5, 6)
# Method: Cell flow cytometry with an acquisition of 10 000 events and data analysis using FlowJo).
# C57BL/6J (B6) or outbred mouse CRI/CD1 T-cells were cultivated either alone or together at equal numbers (1×10^6/ml) for 60 hours in the presence or absence of the inhibitor followed by the harvesting of cells and FACs analysis for PD-1 using anti-PD-1-PE.
# [10] = system: PD-1 expression on T-cells; experiment: FACS of PD-1 expression on T-cells activated with anti-CD3 (2C11) for 48 hours; assay type: cell-based, mouse; conditions: anti-CD3 (2C11) 48 hours; anti-CD3 increased MFI by 5 fold (FIG. 4)
# Method: For anti-CD3 activation of T-cells, cells were stimulated with 5 μg/ml of anti-CD3 (2C11) in RPMI medium supplemented with 10% FCS, 2 mM glutamine, 50 uM 2-ME, 100 U/ml penicillin/streptomycin for 2-4 days using established methods.
# as §1
# (§5) The chemical structures of each inhibitor are shown on bottom and right sides of figure.
# as §5
# [11] = Oral administration in drinking water, cell numbers and viability of spleen cells
# Method: A stock solution 1 mg/ml was made in 1% DMSO. In one set, the 10 ug stock solution was diluted in 10 ml of water. […] By 48 hours, all water was consumed. Mice were then sacrificed, spleen extracted on 60 hours, cells were spun down at 1,800 for 3 min and ACK for removal of red blood cells (RBCs) treated for 2 min. Cells were then centrifuged at 1,800 rpm for 3 min and the absence of red blood cells was confirmed by the loss of red color in the cell pellet. […] An additional stimulant of 2 ug/ml ConA was also added at 48 hours of culture.
# Ex vivo extracted cells were then cultured in 48 well tissue culture plates for 48 hours in the presence of anti-CD3 on plates (1 ug/ml).
# [12] = system: PD-1 expression on T-cells; experiment: Oral administration in drinking water, PD-1 expression on ex vivo anti-CD3 activated spleen cells; design: species or system mouse; conditions: B6 mice
# Method: . […] By 48 hours, all water was consumed. […] Non-stained cells were used a control.
# [13] = system: PD-1 expression on T-cells; experiment: FACS of PD-1 expression on Con A activated T-cells; assay type: cell-based, mouse; conditions: Con A activated T-cells (FIG. 5f)
# From the text: Another mode of T-cell activation involves the stimulation by the lectin Concanavalin A (Con A) (e, f). ConA binds α-D-mannosyl and α-D-glucosyl residues (two hexoses differing only by the alcohol on carbon 2) in terminal position of ramified structures from B-Glycans (reach in α-mannose, or hybrid and bi-antennary glycanes complexes). Con A is known to induce cell agglutination/clustering and to stimulate mouse T-cell subsets giving rise to four functionally distinct T cell populations, including precursors to suppressor T-cell (Dwyer and Johnson 1981 Clin Exp Immunol 46 (2): 237-49). (e) contains the bright field images of Con A activated cells with cell clustering observed in the presence and absence of GSK-3 inhibitor TDZD-8.
structure (smiles),measurement,setting,value
"Cn1cc(C2=C(c3ccc(Cl)cc3Cl)C(=O)NC2=O)c2ccccc21 [SB216763, 3-(2,4-dichlorophenyl)-4-(1-methyl-1H-indol-3-yl)-1H-pyrrole-2,5-dione]",CD3 expression (FACS profile),CD3 expression,unaltered CD3 expression
same,PD-1 surface expression (FACS profile),[1],reduced PD-1 expression; also recorded: decreased the number of cells expressing PD-1
same,FasL expression after in vivo administration (flow cytometry),FasL expression [2],absence of an effect on FasL expression
same,Tbet transcription in vivo (qPCR),Tbet transcription,increased Tbet transcription
same,CD69 expression after in vivo administration (FACS),CD69 expression,minor increase in CD69 expression
same,PD-1 expression on T-cells after in vivo administration (flow cytometry),[3]; mice 4-6 weeks (FIG. 9d),PD-1 expression is reduced
same,PD-1 expression on T-cells after in vivo administration (FACS),[3]; tumor elimination (FIG. 12a),down-regulation of PD-1
same,Tbet transcription (qPCR),[4],increased Tbet transcription
same,FasL expression (FACS profile),FasL expression [5],unaltered FasL expression
same,inhibition of a panel of 24 other protein kinases,[6],Neither compound significantly inhibited any member
same,PD-1 transcription in vivo (qPCR),PD-1 transcription,inhibition of PD-1 transcription at all doses of OVA peptide
same,OT-1 CTL killing of EL4-OVA targets (CTL function),EL4-OVA target cells,increase CTL function
same,CTLA-4 expression after in vivo administration (FACS),[7],minor increase
same,tumor growth,EL4 tumor cells,prevented tumor growth at all concentrations of OVA peptide
same,IFN-γ1 expression after in vivo administration (FACS),[8],increase expression of IFN-γ1 on a greater number of cells
"Cc1c[nH]c(-c2cnc(NCCNc3ccc(C#N)cn3)nc2-c2ccc(Cl)cc2Cl)n1.Cl [CHIR-99021, 6-(2-(4-(2,4-dichlorophenyl)-5-(4-methyl-1H-imidazol-2-yl)pyrimidin-2-ylamino)ethylamino)nicotinonitrile hydrochloride]",PD-1 expression induced in the MLR (FACS),[9],inhibition of PD-1 expression
same,inhibition of anti-CD3 induced increase in PD-1 expression (MFI),[10],> 55%
"COc1ccc(CNC(=O)Nc2ncc([N+](=O)[O-])s2)cc1 [AR-A014418, N-[(4-Methoxyphenyl)methyl]-N′-(5-nitro-2-thiazolyl)urea]",PD-1 expression induced in the MLR (FACS),[9],inhibition of PD-1 expression
same,inhibition of anti-CD3 induced increase in PD-1 expression (MFI),[10],> 45%
"Cn1sc(=O)n(Cc2ccccc2)c1=O [TDZD-8, 1,2,4-Thiadiazolidine-3,5-dione, 2-methyl-4-(phenylmethyl)]",cell death / viability of cells in ex vivo culture after oral administration,"[11]; 48 hours ex vivo culture (FIG. 13b,c)",no indication of cell death; also recorded: no obvious long-term effect on viability
same,"spleen cell numbers, drug treated versus untreated mice","[11]; oral, 2 mg/kg, spleen extracted at 60 hours",No difference on cell numbers
same,percentage of T-cells expressing PD-1 after oral administration,[12]; drug in drinking water (FIG. 13e),reduce the percentage of T-cells expressing PD-1
same,PD-1 expression on ex vivo cells after oral administration (FACS),"[12]; drug in drinking water, ex vivo anti-CD3 48 hours (FIG. 13d)",lower expression of PD-1
same,fewer PD-1 positive cells,[13],> 45%
same,inhibition of anti-CD3 induced increase in PD-1 expression (MFI),[10],> 50%
